Values joined by “and” are separate entries in the source; they are usually repeats but may differ in a detail not shown here. Equal entries are not always repeated.
What was measured:
[1] = tested on: blood derived macrophages (CD16 on CD14 cells); settings: +30 µM, +100 µM, +300 µM, three days, 5 donors, FIG. 2
Procedure: Cells were then processed for flow cytometry (5 separate donors) and CD14 cell co-expression of CD16 (macrophage activation marker) was scored.
Percentage of control median CD16 was calculated for all 5 donors +/- SD.

[2] = tested on: Blood derived macrophages from ALS patients; settings: 300uM overnight, two ALS patients, FIG. 3
From the text: The maj or focus was on regulation of inflammation as compared to normal macrophage functional genes. […] Note that by “housekeeping genes” is meant B2M, HPRT1, RPL13A, GAPDH, and ACTB.

ALS blood monocytes [3] = settings: 3 days
Procedure: Culture supernatants are harvested and osteopontin levels (OPN) are determined by ELISA.
Repeated with 3 normal and 5 ALS donors.

Normal blood macrophages = settings: 150uM, three days, three donors
ALS blood monocytes [4] = settings: 300uM, 3 days, FIG. 4
Procedure: Culture supernatants were harvested and cytokine levels were determined by ELISA. […] Referring to the Y-axis, percentage of reduction is the level of factor in treated as compared to untreated macrophages. N is 8-18 in several experiments.

“sodium chlorite [sodium chlorite formulation]” was tested, and the “CD16 expression on CD14+ (monocyte lineage) cells” value [1] was “dose dependent down regulation of CD16”, the CCL16 gene expression [2] was “clear down regulation” and the CCR2 gene expression [2] was “clear down regulation”. The CXCL9 gene expression [2] was “clear down regulation”, the CXCL10 gene expression [2] was “clear down regulation” and the “IL-18 gene expression (inflammasome activation)” value [2] was “clear down regulation”. For the same substance, the TLR4 gene expression [2] was “clear down regulation”, the “production of OPN from ALS patient macrophages (ELISA)” value (ALS blood monocytes [3]; 150uM, FIG. 6 panel A) was “inhibit production of OPN” and the “SPP1 (osteopontin) gene expression” value (ALS blood monocytes [3]; dose response, FIG. 6 panel B) was “inhibits SPP1 (osteopontin) gene expression in a dose-dependent manner”. For the same substance, the “CCR3 gene down regulated” value (Normal blood macrophages) was 3 X, the “CXCL9 gene down regulated” value (Normal blood macrophages) was 14 X and the SERPINB2 gene upregulated (Normal blood macrophages) was 4 X. For the same substance, the “production of secreted inflammatory factors (IL-1Ra, CD163, CD14, OPN)” value (ALS blood monocytes [4]) was “inhibits production”, the “Chlorite % Reduction of factor in vitro, MIG” value (COVID19 blood monocytes) was 88% and 70% and the “Chlorite % reduction of factor in vitro, IP10” value (COVID19 blood monocytes) was 95% and 80%. For the same substance, the “down regulation of HGF” value (COVID19 blood monocytes) was “greater than 50%”, the “down regulation of IL1Ra” value (COVID19 blood monocytes) was “greater than 50%” and the “down regulation of IP10 (CXCL10)” value (COVID19 blood monocytes) was “greater than 50%”. For the same substance, the “down regulation of MIG (CXCL9)” value (COVID19 blood monocytes) was “greater than 50%”, the “down regulation of OPN” value (COVID19 blood monocytes) was “greater than 50%” and the “down regulation of sCD163 (CD163)” value (COVID19 blood monocytes) was “greater than 50%”. For the same substance, the “production of COVID-19 patient macrophage produced disease factors (IL-1Ra, IP-10, HGF, MIG, sCD163, OPN) as compared to controls” value (COVID19 blood monocytes) was “downregulated production”.
